Results on two molecules are retold here after PMC12670396, “Crizotinib- or Ceritinib-Conjugated Platinum(IV) Prodrugs As Potent Multiaction Agents Inducing Antiproliferative Effects in 2D and 3D Cancer Cell Models” (Journal of Medicinal Chemistry, 2025).

Broadly, the IC50 is the concentration at which inhibition is half-maximal.

One series relates to CT26 and NCI-H2228 cells. The series can be described thus: Extracellular HMGB1 (ELISA). It is filed as cell-based. To be noted: IC50 concentrations, 24 h. The procedure:
The amount of HMGB1 in the medium was determined using an enzyme-linked immunosorbent assay (ELISA).
CT26 and NCI-H2228 cells were seeded in 48-well plates at a density of 5 × 10^4 cells/well and grown overnight. […] Aliquots of the supernatants were then withdrawn and processed using the HMGB1 Express ELISA kit (TECAN) according to the manufacturer’s instructions. The final absorbance, proportional to the HMGB1 amount, was read at 420 nm using a multimode SPARK reader (TECAN).
In general terms: An ELISA detects its analyte on a solid surface through an enzyme-linked reagent.

The next series deals with CT26 cell line. The series can be described thus: MTT cytotoxic/antiproliferative activity, 72 h. To be noted: Mus musculus. It is filed as cell-based, murine.
Another series has as its system MDA-MB-231. The series can be described thus: MTT cytotoxic/antiproliferative activity, 72 h. To be noted: Homo sapiens; MDA-MB-231, MTT, 72 h. It is filed as cell-based, human.
Series [1] deals with normal (noncancerous) cells MRC-5, IMR-90, hTERT-HPNE, MCF10A. The series can be described thus: MTT, noncancerous cell lines (average, selectivity index). It is filed as cell-based, human. As to the method:
Growth inhibition activity in cancer cell lines was compared with the activity to inhibit the proliferation of normal (noncancerous) cells, namely MRC-5, IMR-90, hTERT-HPNE, and MCF10A cells. Selectivity indexes (SI) were calculated as (IC50 in noncancerous cells)/(average IC50 in cancer cells). […] We further assessed the toxicity of several of the compounds in hepatocyte-like cells (HLC) generated from human pluripotent cells. […]

A further series has as its target T1, MET (Homo sapiens, UniProt P08581).
T1 construct: Western blot analysis of the phosphorylation state of ALK and MET; endogenous in cells; host or cells: NCI-H2228
In words: Western blot of MET phosphorylation state. To be noted: NCI-H2228 lysates, IC50 concentrations, 24 h. The format is cell-based. The procedure: (§1) Whereas the signals of pALK and pMET are decreased in the presence of the tested compounds, the overall amount of ALK and MET is not markedly changed.
(§2) NCI-H2228 cells were seeded in 6-well plates at a density of 2 × 10^5 cells/well and incubated overnight. […] The cells were then harvested and lysed using RIPA lysis buffer supplemented with protease and phosphatase inhibitors as recommended by the manufacturer. Protein extracts were resolved with SDS-PAGE, transferred to a PVDF membrane, and the respective proteins were detected with specific antibodies (anti-phosphoALK, anti-ALK, anti-phosphoMET, anti-MET, and anti-GADPH) and HRP-conjugated secondary antibodies. The signals were obtained with SignalFire ECL Reagent and recorded with an Amersham680 reader.
(In general: A western blot detects proteins with antibodies after separation by electrophoresis.)

Another series has as its target T2, ALK (Homo sapiens, UniProt Q9HC35+Q9UM73).
T2 construct: Western blot detection of the ALK phosphorylation state in lysates of NCI-H2228 cells exposed to the tested compounds; endogenous in cells; host or cells: NCI-H2228
The series can be described thus: Western blot of ALK phosphorylation state. The format is cell-based. To be noted: NCI-H2228 lysates, IC50 concentrations, 24 h. As to the method:
as §1, §2

Series [2] in a line: Cytotoxicity in hepatocyte-like cells, sulphorhodamine B assay. The format is cell-based. To be noted: hepatocyte-like cells from human pluripotent cells. As to the method: (§3) Growth inhibition activity in cancer cell lines was compared with the activity to inhibit the proliferation of normal (noncancerous) cells, namely MRC-5, IMR-90, hTERT-HPNE, and MCF10A cells. Selectivity indexes (SI) were calculated as (IC50 in noncancerous cells)/(average IC50 in cancer cells). […] We further assessed the toxicity of several of the compounds in hepatocyte-like cells (HLC) generated from human pluripotent cells.
(§4) Cytotoxicity in hepatocyte-like cells (HLC). STEMdiff Hepatocyte Kit was used to generate HLC from human pluripotent stem cells. Cytotoxicity of several of the tested compounds in HLC was evaluated using the sulphorhodamine B assay.

The subject of another series is MMC2. The series can be described thus: MTT cytotoxicity in NER-deficient cells, 72 h. The format is cell-based, Chinese hamster. The source says: The cytotoxicity assay was also employed to determine whether DNA damage might be involved in the mechanism of action of the tested compounds. The Chinese hamster ovary MMC2 cell line harbors the ERCC3/XPB mutation, which renders it deficient in nucleotide excision repair (NER), whereas the parent line CHOK1 is proficient in this repair process. Thus, the MMC2 line is often more sensitive to agents causing DNA damage, especially NER-reparable DNA damage, than CHOK1. […] Phosphorylation of H2AX is a commonly used marker of DNA damage. […]

The next series relates to HCT116. The series can be described thus: MTT cytotoxic/antiproliferative activity, 72 h. To be noted: Homo sapiens, HCT-116; HCT116, MTT, 72 h. It is filed as cell-based, human.
A further series relates to NCI-H2228. In words: MTT cytotoxic/antiproliferative activity, 72 h. It is filed as cell-based, human. To be noted: Homo sapiens; NCI-H2228, MTT, 72 h.
For series [3], the system named is panel of six cancer cell lines. In words: MTT, panel of six cancer cell lines (average, ranges). To be noted: Homo sapiens; average over six cancer cell lines; read-out: av cancer (average IC50 in cancer cells). The format is cell-based, human. As to the method:
(§5) A panel of six cancer cell lines was used to evaluate the cytotoxic potential of the investigated compounds.
as §4

The test system of a further series is RD. In words: MTT cytotoxic/antiproliferative activity, 72 h. It is filed as cell-based, human. To be noted: Homo sapiens, MTT, 72 h.
Another series deals with CHOK1. In words: MTT cytotoxicity in NER-proficient cells, 72 h. It is filed as cell-based, Chinese hamster. To be noted: Cricetulus griseus, CHO-K1.
Description: The cytotoxicity assay was also employed to determine whether DNA damage might be involved in the mechanism of action of the tested compounds. The Chinese hamster ovary MMC2 cell line harbors the ERCC3/XPB mutation, which renders it deficient in nucleotide excision repair (NER), whereas the parent line CHOK1 is proficient in this repair process. Thus, the MMC2 line is often more sensitive to agents causing DNA damage, especially NER-reparable DNA damage, than CHOK1. […] Phosphorylation of H2AX is a commonly used marker of DNA damage.
as §4

Another series deals with U87-MG. In words: MTT cytotoxic/antiproliferative activity, 72 h. The format is cell-based, human. To be noted: Homo sapiens, U-87 MG, MTT, 72 h. The procedure:
as §5, §4

The subject of a further series is MCF10A. The series can be described thus: MTT cytotoxicity in noncancerous cells, 72 h. It is filed as cell-based, human. To be noted: Homo sapiens, MCF-10A. As to the method: as §3, §4
Another series relates to hTERT-HPNE. The series can be described thus: MTT cytotoxicity in noncancerous cells, 72 h. The format is cell-based, human. To be noted: Homo sapiens. As to the method: as §3, §4
In the next series the test system is MRC-5. The series can be described thus: MTT cytotoxicity in noncancerous cells, 72 h. It is filed as cell-based, human. To be noted: Homo sapiens, MRC5, MRC-5, MTT. As to the method: as §3, §4
The next series relates to IMR-90. The series can be described thus: MTT cytotoxicity in noncancerous cells, 72 h. The format is cell-based, human. To be noted: Homo sapiens, IMR-90, MTT. As to the method:
as §3, §4

A further series has as its system A549. The series can be described thus: MTT cytotoxic/antiproliferative activity, 72 h. The format is cell-based, human. To be noted: Homo sapiens; A549, MTT, 72 h.
The next series relates to A549 spheroids. The series can be described thus: Cytotoxicity in 3D spheroids, CellTiter-Glo 3D. It is filed as cell-based, human. To be noted: Homo sapiens, A549 3D spheroids, 96 h. As to the method: (§6) In the 3D structure, the gradients of gases, nutrients, and therapeutics play a role in the final cytotoxicity of a compound.
(§7) A549 and NCI-H2228 cells were seeded in ultralow attachment, U-shape plates (Corning) at a density of 800 cells/well in the tumorsphere medium consisting of DMEM/F12 medium (Sigma), fibroblast growth factor (20 ng/mL; Sigma), epidermal growth factor 2 (10 ng mL^–1; Sigma), B27 supplement (1×; Gibco), bovine serum albumin, bovine serum albumin (BSA) (1.5 mg mL^–1; Sigma). […] CellTiter-Glo 3D viability assay was used for the experiment evaluation following the manufacturer’s instructions. The bioluminescence signal, proportional to the number of living cells, was measured using the luminescence reader SPARK, and IC50 values were calculated.

The subject of a further series is NCI-H2228 spheroids. In words: Cytotoxicity in 3D spheroids, CellTiter-Glo 3D. To be noted: Homo sapiens, NCI-H2228 3D spheroids, 96 h. It is filed as cell-based, human. As to the method: as §6, §7

T1 sequence (P08581 25-1390): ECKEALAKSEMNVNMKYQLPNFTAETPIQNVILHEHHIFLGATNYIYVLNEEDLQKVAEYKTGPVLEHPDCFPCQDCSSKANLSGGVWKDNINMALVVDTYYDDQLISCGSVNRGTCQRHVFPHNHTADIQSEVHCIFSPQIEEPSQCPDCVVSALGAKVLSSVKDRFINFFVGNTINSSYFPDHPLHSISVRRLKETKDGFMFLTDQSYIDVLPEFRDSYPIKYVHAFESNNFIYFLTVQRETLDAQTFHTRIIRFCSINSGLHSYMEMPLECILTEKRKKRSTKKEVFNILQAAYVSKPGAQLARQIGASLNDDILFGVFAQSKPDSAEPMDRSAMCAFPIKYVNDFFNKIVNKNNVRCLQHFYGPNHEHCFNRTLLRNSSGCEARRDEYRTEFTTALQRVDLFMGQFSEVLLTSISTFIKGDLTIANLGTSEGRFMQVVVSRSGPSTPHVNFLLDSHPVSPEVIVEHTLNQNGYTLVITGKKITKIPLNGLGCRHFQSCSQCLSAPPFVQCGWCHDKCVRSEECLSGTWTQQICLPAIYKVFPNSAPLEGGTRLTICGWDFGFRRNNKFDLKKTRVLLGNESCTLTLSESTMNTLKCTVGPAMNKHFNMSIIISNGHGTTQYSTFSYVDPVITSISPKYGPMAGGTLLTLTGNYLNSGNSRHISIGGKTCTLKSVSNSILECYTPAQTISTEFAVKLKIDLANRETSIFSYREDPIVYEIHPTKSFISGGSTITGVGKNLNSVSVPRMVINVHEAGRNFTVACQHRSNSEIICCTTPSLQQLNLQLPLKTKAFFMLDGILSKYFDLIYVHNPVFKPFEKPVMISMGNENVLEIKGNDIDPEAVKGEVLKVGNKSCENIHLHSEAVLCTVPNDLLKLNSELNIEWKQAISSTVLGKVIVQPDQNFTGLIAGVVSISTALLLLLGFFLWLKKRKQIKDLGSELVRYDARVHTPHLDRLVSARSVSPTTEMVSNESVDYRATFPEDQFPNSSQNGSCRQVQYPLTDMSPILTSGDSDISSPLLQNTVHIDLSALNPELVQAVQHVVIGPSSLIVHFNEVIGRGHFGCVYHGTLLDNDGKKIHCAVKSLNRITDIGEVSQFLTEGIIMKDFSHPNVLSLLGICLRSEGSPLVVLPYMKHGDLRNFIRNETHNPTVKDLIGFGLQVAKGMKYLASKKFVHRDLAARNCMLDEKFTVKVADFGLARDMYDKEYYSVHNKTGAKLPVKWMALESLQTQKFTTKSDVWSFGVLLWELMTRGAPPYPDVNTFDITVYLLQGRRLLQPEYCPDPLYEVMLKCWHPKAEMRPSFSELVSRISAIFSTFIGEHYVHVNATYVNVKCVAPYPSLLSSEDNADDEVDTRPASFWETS
T2 sequence (Q9HC35+Q9UM73 fused): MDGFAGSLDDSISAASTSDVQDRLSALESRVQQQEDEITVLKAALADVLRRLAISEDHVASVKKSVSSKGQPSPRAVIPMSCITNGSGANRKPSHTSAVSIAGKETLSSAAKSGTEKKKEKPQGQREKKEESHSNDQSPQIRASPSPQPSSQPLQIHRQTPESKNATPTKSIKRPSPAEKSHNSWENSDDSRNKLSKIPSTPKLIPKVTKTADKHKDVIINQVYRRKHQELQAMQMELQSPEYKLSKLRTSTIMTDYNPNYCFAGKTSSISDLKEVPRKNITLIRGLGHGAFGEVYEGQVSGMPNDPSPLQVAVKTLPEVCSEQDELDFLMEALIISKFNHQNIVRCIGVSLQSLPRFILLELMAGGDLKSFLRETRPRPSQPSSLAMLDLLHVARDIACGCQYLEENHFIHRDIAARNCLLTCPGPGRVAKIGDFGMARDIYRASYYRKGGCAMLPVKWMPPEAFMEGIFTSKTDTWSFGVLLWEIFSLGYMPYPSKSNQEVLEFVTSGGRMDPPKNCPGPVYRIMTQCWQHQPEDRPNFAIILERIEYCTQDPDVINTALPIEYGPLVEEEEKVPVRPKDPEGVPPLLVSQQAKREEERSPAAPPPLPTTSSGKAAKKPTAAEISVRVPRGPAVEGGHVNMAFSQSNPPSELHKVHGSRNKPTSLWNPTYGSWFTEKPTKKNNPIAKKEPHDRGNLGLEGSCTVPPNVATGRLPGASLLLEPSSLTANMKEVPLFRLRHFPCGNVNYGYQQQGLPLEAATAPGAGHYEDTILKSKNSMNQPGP

`COc1cccc2c1C(=O)c1c(O)c3c(c(O)c1C2=O)C[C@@](O)(C(=O)CO)C[C@@H]3O[C@H]1C[C@H](N)[C@H](O)[C@H](C)O1` [DOX, doxorubicin]: the “HMGB1 externalization relative to nontreated control” value in the series on CT26 and NCI-H2228 cells is recorded as “highest increase”. In the series on CT26 cell line, this molecule had an IC50 of 2100 ± 300 nM.
Consider `Cc1cc(Nc2ncc(Cl)c(Nc3ccccc3S(=O)(=O)C(C)C)n2)c(OC(C)C)cc1C1CCNCC1` [compound 5, ceritinib], for which the IC50 in the series on MDA-MB-231 stood at 1400 ± 900 nM; in series [1] (Homo sapiens, average over MRC-5, IMR-90, hTERT-HPNE, MCF10A, read-out: av norm (average IC50 in noncancerous cells)) it was 3400 nM; in series [2], 8000 ± 3000 nM; in the series on MMC2 (Cricetulus griseus, MMC2 (NER deficient), MTT, 72 h), 1300 ± 300 nM; in the series on HCT116, 900 ± 200 nM; in the series with NCI-H2228, 510 ± 40 nM. The IC50 amounted to 1100 nM in series [3]; 1500 ± 300 nM in the series with RD; 1400 ± 600 nM in the series with CHOK1; 1100 ± 1000 nM in the series on U87-MG; 3400 ± 900 nM with MCF10A; 4100 ± 200 nM with hTERT-HPNE. Moreover, the IC50 with MRC-5 was determined as 2200 ± 500 nM; with IMR-90, 3700 ± 400 nM; in the series on A549, 900 ± 200 nM; in the series with CT26 cell line, 1200 ± 300 nM; in the series with A549 spheroids, 2300 ± 800 nM; in the series with NCI-H2228 spheroids, 750 ± 90 nM. In addition, in [1] (IC50(normal cells)/averageIC50(cancer cells)), the “SI, selectivity index” value stood at 3.0. At MET, the “phosphorylation of MET” value is on record as “inhibit the phosphorylation”. Also, the “phosphorylation of ALK” value at ALK is recorded as “inhibit the phosphorylation”. Moreover, the “Index F” value in the series with MMC2 (IC50(CHOK1)/IC50(MMC2)) was 1.08.
